“And” between values parts separate entries of the source, which are not always exact repeats. Equal values may be shown once.
Experiments:
[1] = Solubility in D2O by 1H NMR (Me2SO2 internal standard); assay type: physicochemical; conditions: for Solubility: 21 °C
Experimental: • (a) Solubility in D2O. A suspension of the selected diiron compound (3–5 mg) in a D2O solution (ca. 1 mL) containing Me2SO2 (3.36 × 10^−3 M) as internal standard was vigorously stirred at 21 °C for 1.5 h. The resulting saturated solution was filtered over celite, transferred into an NMR tube and then analyzed by ^1H NMR spectroscopy (delay time = 3 s; number of scans = 20). The concentration (solubility) was calculated by the relative integral (related to Cp and/or NMe signals) with respect to Me2SO2 (δ = 3.14 ppm). • (b) Stability in DMSO-d6/D2O solution. The selected diiron compound (ca. 4 mg) was added of 1 mL of D2O (3a,c) or DMSO-d6/D2O (2:1 v/v) mixture (2a,c, 3b, 4a–c, 5a–c, 6a–c, 7), containing Me2SO2 (3.36 × 10^−3 M). The resulting mixture was stirred for 30 min and then filtered over celite; the filtrated solution was transferred into an NMR tube. The sample was analyzed by ^1H NMR (time = 0) and then heated at 37 °C for 72 h. After cooling to room temperature, the solution was separated from a small amount of solid by filtration over celite, and the new ^1H NMR spectrum was recorded (delay time = 3 s; number of scans = 20). In every case, no newly formed organometallic species was detected. The amount of starting material in solution (% with respect to the initial spectrum) was calculated by the relative integral (vs. Cp and/or NMe signals) with respect to Me2SO2 as internal standard.

[2] = system: human ovarian carcinoma cisplatin-sensitive A2780; assay: Cytotoxicity, WST-1 cell viability assay, A2780; assay type: cell-based; conditions: for IC50: 72 h exposure; for Selectivity index (S.I.): ratio between IC50 for Balb/3T3 and IC50 for A2780
Experimental: (§1) In vitro cytotoxicity investigations were carried out by using human ovarian carcinoma cisplatin-sensitive A2780 (ECACC93112519), human ovarian carcinoma cisplatin-resistant A2780cisR (ECACC 93112517) and mouse embryo fibroblasts Balb/3T3 clone A31 (ATCC CCL-163) cell lines. A2780 and A2780cisR were purchased from the European Collection of Authenticated Cell Cultures (ECACC), and Balb/3T3 clone A31 cell line from the American Type Culture Collection (ATCC).
(§2) A2780 and A2780cisR cells were routinely cultured in RPMI 1640 (Merck) containing 2 mM of L-glutamine (Merck), 1% of penicillin/streptomycin solution (Merck—10 000 U mL^−1: 10 mg mL^−1), 10% of fetal bovine serum (Merck—FBS) and antimycotic (InvivoGen, USA), and Balb/3T3 clone A31 in Dulbecco’s modified Eagle medium (Merck—DMEM) supplemented with 4 mM of L-glutamine, 1% of penicillin/streptomycin solution, 10% of calf serum (Merck) and antimycotic. […] The cultures were maintained at 37 °C and in a 5% CO2-enriched atmosphere.
(§3) A2780, A2780cisR and Balb/3T3 clone A31 cells were seeded in 96-well tissue culture polystyrene plates at a concentration of 3 × 10^3, 6 × 10^3 and 1 × 10^3 cells per well, respectively. After overnight incubation, the cells were treated with different concentrations (0–100 µM) of the selected compounds for 72 h at 37 °C in a 5% atmosphere of CO2. Stock solutions of compounds were prepared in DMSO and sequentially diluted in medium (final DMSO concentration of 0.5%). […] At the end of the incubation time, cell viability was assessed by means of WST-1 tetrazolium salt reagent (Roche). Briefly, cells were incubated for 4 h with the tetrazolium salt reagent diluted 1:10, at 37 °C and 5% CO2. Measurements of formazan dye absorbance, which directly correlates with the number of viable cells, were carried out with a micro-plate reader (Biorad) at 450 nm, using 655 nm as reference wavelength. The 50% inhibitory concentration (IC50) refers to compound concentration at which 50% of cell death is observed with respect to the control. For each tested compound, assay was performed on triplicate. The concentration effect curves were generated by nonlinear regression curves (GraphPad Prism Software, 2021) and the data reported as mean ± standard deviation.

[3] = system: mouse embryo fibroblasts Balb/3T3 clone A31; assay: Cytotoxicity, WST-1 cell viability assay, Balb/3T3 clone A31; assay type: cell-based; conditions: 72 h exposure
Experimental: as §1, §2, §3

[4] = molecular target: T1, cytochrome c (Cyt c) (Equus caballus, UniProt P00004); assay: ESI-MS interaction with cytochrome c; assay type: binding; conditions: 24 h at 37 °C, protein-to-metal ratio 1:2, pH 6.8
T1 construct: purchased
Experimental: • (a) Sample preparation. Cytochrome c (Cyt c) was commercially available and used as received; the TrxR dodecapeptide (TrxR-pept) was synthesized as reported in the literature. The stock solutions of the selected iron-based complexes were prepared in DMSO up to a final concentration of 10^−2 M. The stock solution of TrxR-pept was prepared in LC-MS grade water by dissolving the required amount of lyophilized peptide to reach a final concentration of 10^−3 M. The stock solution of Cyt c 10^−3 M was prepared by dissolving the required amount of protein in 2 mM ammonium acetate solution at pH 6.8. In the interaction tests with TrxR-pept, opportune aliquots of each complex and TrxR-pept stock solutions were mixed and diluted with LC-MS grade water to 10^−4 M final concentration and a TrxR-pept/complex ratio of 1:1. For each iron-based complex/Cyt c pair, appropriate aliquots of the respective stock solutions were mixed and subsequently diluted with 2 mM ammonium acetate solution (pH 6.8) to a final protein concentration of 10^−4 M and a protein-to-metal molar ratio of 1:2. All the sample mixtures were incubated for 24 h at 37 °C. Subsequently, opportune dilutions were performed as detailed: • – the TrxR-pept containing solutions were further diluted with LC-MS grade water to a final TrxR-pept concentration of 10^−5 M and added with 0.1% v/v of formic acid just before infusion in the mass spectrometer; • – the protein-containing solutions were diluted with 2 mM ammonium acetate solution (pH 6.8) to a final protein concentration of 10^−6 M and added with 0.1% v/v of formic acid just before infusion. • (b) ESI-MS instrumental parameters. The ESI mass spectra were acquired using a TripleTOF® 5600^+ high-resolution mass spectrometer (Sciex, Framingham, MA, USA), with a DuoSpray® interface operating with an ESI probe. Respective ESI mass spectra were acquired through direct infusion at 7 μL min^−1 flow rate. The ESI source parameters were optimized for each biomolecule and were as follows: for TrxR dodecapeptide positive polarity, ionspray voltage floating 5500 V, temperature 0, ion source gas 1 (GS1) 35 L min^−1; ion source gas 2 (GS2) 0; curtain gas (CUR) 20 L min^−1, declustering potential (DP) 300 V, collision energy (CE) 10 V, range 1070–1600 m/z; for Cyt c positive polarity, ionspray voltage floating 5500 V, temperature 0, ion source gas 1 (GS1) 35 L min^−1; ion source gas 2 (GS2) 0; curtain gas (CUR) 20 L min^−1, declustering potential (DP) 180 V, collision energy (CE) 10 V, range 500–1800 m/z. For acquisition, Analyst TF software 1.7.1 (Sciex, Framingham, MA, USA) was used and deconvoluted spectra were obtained by using the Bio Tool Kit micro-application v.2.2 embedded in PeakView^TM software v.2.2 (Sciex, Framingham, MA, USA).

T1 sequence (P00004 whole entry): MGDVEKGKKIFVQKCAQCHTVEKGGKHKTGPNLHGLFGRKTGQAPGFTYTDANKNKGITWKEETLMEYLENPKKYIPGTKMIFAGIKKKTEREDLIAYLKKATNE

Solubility in D2O (in words) [1] | Interaction with Cyt c (ESI-MS) [4] | Solubility [1] | Substance | IC50 [2] | Selectivity index (S.I.) [2] | IC50 [3]
 | substantial chemical inertness | 2.63 × 10^−3 mol·L^−1 and 1.64 g·L^−1 | [Fe2Cp2(CO)(μ-CO){μ-η^1:η^3-C^3(Me)C^2(Me)C^1NMe(Cy)}]CF3SO3 [Compound 4c] | 1.8 ± 0.2 µM | 52 | 94 ± 16 µM
 | substantial chemical inertness | 3.49 × 10^−3 mol·L^−1 and 2.13 g·L^−1 | [Fe2Cp2(CO)(μ-CO){μ-η^1:η^3-C^3(Me)C^2HC^1NMe(Cy)}]CF3SO3 [Compound 4a] | 3.3 ± 0.4 µM | >30 | > 100 µM
 | substantial chemical inertness |  | [Fe2Cp2(CO)(μ-CO){μ-η^1:η^3-C^3(Ph)C^2HC^1NMe(4-C6H4OMe)}]CF3SO3 [Compound 6b] | 3.8 ± 0.4 µM | 10 | 39 ± 3 µM
 | substantial chemical inertness | 2.34 × 10^−3 mol·L^−1 and 1.48 g·L^−1 | [Fe2Cp2(CO)(μ-CO){μ-η^1:η^3-C^3(Ph)C^2HC^1NMe(CH2CH = CH2)}]CF3SO3 [Compound 3b] | 6 ± 0.8 µM | >16 | > 100 µM

Further lines, the substance ahead of its results:

Substance | Solubility in D2O (in words) [1] | Interaction with Cyt c (ESI-MS) [4] | Solubility [1] | IC50 [2] | Selectivity index (S.I.) [2] | IC50 [3]
[Fe2Cp2(CO)(μ-CO){μ-η^1:η^3-C^3(Me)C^2(Me)C^1N(CH2Ph)2}]CF3SO3 [Compound 2c] | almost insoluble in D2O | substantial chemical inertness |  | 1.91 ± 0.15 µM | 9 | 18 ± 3 µM
[Fe2Cp2(CO)(μ-CO){μ-η^1:η^3-C^3(Me)C^2(Me)C^1NMe(2-naphthyl)}]CF3SO3 [Compound 7] | almost insoluble in D2O | substantial chemical inertness |  | 2.2 ± 0.2 µM | 22 | 48 ± 3 µM
[Fe2Cp2(CO)(μ-CO){μ-η^1:η^3-C^3(Me)C^2(Me)C^1NMe(4-C6H4OMe)}]CF3SO3 [Compound 6c] |  | substantial chemical inertness | 1.06 × 10^−3 mol·L^−1 and 0.69 g·L^−1 | 3.8 ± 0.4 µM | >26 | > 100 µM
[Fe2Cp2(CO)(μ-CO){μ-η^1:η^3-C^3(Me)C^2(Me)C^1NMe(CH2Ph)}]CF3SO3 [Compound 5b] |  | substantial chemical inertness | 1.52 × 10^−3 mol·L^−1 and 0.96 g·L^−1 | 5.1 ± 0.3 µM | >19 | > 100 µM

Reference: article PMC8398472, “Anticancer Diiron Vinyliminium Complexes: A Structure–Activity Relationship Study” (Pharmaceutics, 2021)
